Measured values reported in patent EP0045334A1, “Propranolol antigen conjugates and antibodies and method of using them” (SYVA COMPANY, priority 1980, dated 1982).

What follows are compounds tested on Antibodies prepared from BSA conjugate according to Example 6 (assay: Cross-reactivity in homogeneous enzyme immunoassay for propranolol (G6PDH conjugate, change in OD at 340nm)). Settings: Lot 2215; 100ng/ml propranolol standard.
Type: binding
Procedure: (§1) Antibodies were prepared employing the conjugates of Examples 4 and 6 in accordance with known procedures. The bleeds were harvested and the antibodies isolated according to known techniques.
(§2) The following is the assay procedure employed for the determination of the presence of propranolol.
(§3) In carrying out the propranolol assay, a number of reagent solutions are prepared:
(§4) • 0.055M Tris-HCl • 0.05% Sodium Azide • 0.005% Thimerosal • pH8.1 at room temperature • Assay Buffer • Basic Buffer • 0.5% NaCl • 0.01% Triton X-100 • pH8.1 at room temperature • Substrate/Antibody Diluent • Basic Buffer • 1.0% RSA (Rabbit Serum Albumin) • 0.04M NAD • 0.066M glucose-6-phosphate • pH5.0 at room temperature • Enzyme Diluent • Basic Buffer • 1.0% RSA • 0.9% NaCl • pH 8.1 at room temperature • Antibody-Substrate Reagent A
(§5) Antibody Substrate is used to dilute gamma globulin isolated as above so that ca 70% of the G6PDH conjugate activity is inhibited in the assay solution.
(§6) The enzyme conjugate (e.g., Example 7) is diluted with enzyme diluent to attain the desired maximum rate. This is measured by aspirating into a spectrometer and taking the change in readings at 340nm over a 30 second period after a 15 second delay.
(§7) In carrying out the assay, the assay solution is prepared by combining the following: 50µl of the sample to be assayed, 50 µl of Reagent A, and 50 µl of Reagent B with 750 µl of assay buffer. The mixture is aspirated into a spectrometer and the A OD read at 340nm. The.concentration of propranolol in the sample is read from a standard curve prepared by using standardized solutions and taking readings.
(§8) The drugs listed below were used in preliminary testing for cross-reactivity with propranolol using the assay procedure described above: 4-hydroxypropranolol (4POH), N-desisopropyl-propranolol (DIPP), propranolol glycol (PG), naphthoxylactic acid (NLA), and naphthoxyacetic acid (NAA). All are metabolites of propranolol itself. […] The remainder show cross reactivity as below.
CC(C)NCC(O)COc1ccc(O)c2ccccc12 (stereo not drawn) [Example 4POH, 4-hydroxypropranolol] was tested, and the “CROSS-REACTIVITY, expressed as the concentration necessary to elevate the signal of a 100ng/ml standard solution by 30%” value (“CROSS-REACTIVITY, expressed … by 30%” for short) was >1000 ng/mL.
For NCC(O)COc1cccc2ccccc12 (stereo not drawn) [DIPP, N-desisopropyl-propranolol], the “CROSS-REACTIVITY, expressed … by 30%” value was 22 ng/mL.
OCC(O)COc1cccc2ccccc12 (stereo not drawn) [PG, propranolol glycol] was tested, and the “CROSS-REACTIVITY, expressed … by 30%” value was 230 ng/mL.

Same assay, conditions: Lot 2216; 100ng/ml propranolol standard
CC(C)NCC(O)COc1ccc(O)c2ccccc12 (stereo not drawn) [Example 4POH, 4-hydroxypropranolol] was tested, and the “CROSS-REACTIVITY, expressed … by 30%” value was >1000 ng/mL.
In the case of NCC(O)COc1cccc2ccccc12 (stereo not drawn) [DIPP, N-desisopropyl-propranolol], the “CROSS-REACTIVITY, expressed … by 30%” value was 200 ng/mL.
For OCC(O)COc1cccc2ccccc12 (stereo not drawn) [PG, propranolol glycol], the “CROSS-REACTIVITY, expressed … by 30%” value was 400 ng/mL.

These compounds were tested on Antibodies prepared from BgG conjugate according to Example 4 in the same assay as above. Settings: Lot 2153; 100ng/ml propranolol standard.
Type: binding
Procedure: as §1, §2, §3, §4, §5, §6, §7, §8
CC(C)NCC(O)COc1ccc(O)c2ccccc12 (stereo not drawn) [Example 4POH, 4-hydroxypropranolol] was tested, and the “CROSS-REACTIVITY, expressed … by 30%” value was 190 ng/mL.
In the case of NCC(O)COc1cccc2ccccc12 (stereo not drawn) [DIPP, N-desisopropyl-propranolol], the “CROSS-REACTIVITY, expressed … by 30%” value was 8 ng/mL.
With OCC(O)COc1cccc2ccccc12 (stereo not drawn) [PG, propranolol glycol] the “CROSS-REACTIVITY, expressed … by 30%” value was 84 ng/mL.
